Measured values taken from patent US20250320189A1, “NEW DERIVATIVES FOR TREATING TRPM3 MEDIATED DISORDERS” (Katholieke Universiteit Leuven, priority 2022, published 2025).
pIC50: −log10 of the molar value.

Target: T1, mouse TRPM3α2 (mTRPM3) ion channel (Mus musculus, UniProt J9SQF3)
T1 construct: expressed in transfected cells; host or cells: flip-in (Flp-In) HEK293
Test: Monitoring the TRPM3 ion channel driven Ca2+ uptake (Fluo-4 AM assay)
Type: cell-based
Conditions: mTRPM3alpha2 overexpressing flip-in HEK293 cells, stimulated with Pregnenolone sulfate (PS) 50 μM
Description: In order to monitor the inhibition of the mouse TRPM3α2 (mTRPM3) ion channel by the compounds of the invention, a cellular system making use of an mTRPM3alpha2 or hTRPM3 overexpressing cell line (flip-in HEK293) was used. The TRPM3 channel was stimulated/opened with Pregnenolone sulfate (PS) (50 μM) which results in Ca^2+ influx.
For mTRPM3, the intracellular Ca^2+ was measured with a Calcium responsive dye, Fluor-4 AMV ester (Invitrogen). Cells were cultured until a confluence of 80-90%, washed with Versene (Invitrogen) and detached from the surface by a short incubation with 0.05% Trypsin (Invitrogen). The trypsination process was stopped by the addition of complete cell culture medium (DMEM, glutamax, 10% FCS, NEAA,Pen-Strep). Cells were collected and resuspended in Krebs buffer without Calcium at RT.
Prior the cell seeding (±2000 cells/well into a black, 384 well plate (Greiner)) the diluted compound was added in the assay plate, together with the PS dissolved in Krebs buffer containing Calcium. […] Directly after cell addition the plates were read on an Envision fluorescence reader (PerkinElmer) by an Excitation of 485 nm and emission at 535 nm.
Channel inhibition was calculated compared to a non-PS stimulated control versus a condition stimulated with PS (50 μM) with vehicle. The ability of the compounds of the invention to inhibit this activity was determined as: Percentage inhibition=[1−((RFU determined for sample with test compound present−RFU determined for sample with positive control inhibitor) divided by (RFU determined in the presence of vehicle−RFU determined for sample with positive control inhibitor))]*100.
The activities of the Example compounds tested are depicted in the table below. The activity ranges A, B and C refer to IC50 values in the Fluo-4 AM assay as follows: “A”: IC50<1 μM; “B”: 1 μM≤IC50≤20 μM and “C”: IC50>20 μM

T1 sequence (J9SQF3 1-1709 isoform J9SQF3-12): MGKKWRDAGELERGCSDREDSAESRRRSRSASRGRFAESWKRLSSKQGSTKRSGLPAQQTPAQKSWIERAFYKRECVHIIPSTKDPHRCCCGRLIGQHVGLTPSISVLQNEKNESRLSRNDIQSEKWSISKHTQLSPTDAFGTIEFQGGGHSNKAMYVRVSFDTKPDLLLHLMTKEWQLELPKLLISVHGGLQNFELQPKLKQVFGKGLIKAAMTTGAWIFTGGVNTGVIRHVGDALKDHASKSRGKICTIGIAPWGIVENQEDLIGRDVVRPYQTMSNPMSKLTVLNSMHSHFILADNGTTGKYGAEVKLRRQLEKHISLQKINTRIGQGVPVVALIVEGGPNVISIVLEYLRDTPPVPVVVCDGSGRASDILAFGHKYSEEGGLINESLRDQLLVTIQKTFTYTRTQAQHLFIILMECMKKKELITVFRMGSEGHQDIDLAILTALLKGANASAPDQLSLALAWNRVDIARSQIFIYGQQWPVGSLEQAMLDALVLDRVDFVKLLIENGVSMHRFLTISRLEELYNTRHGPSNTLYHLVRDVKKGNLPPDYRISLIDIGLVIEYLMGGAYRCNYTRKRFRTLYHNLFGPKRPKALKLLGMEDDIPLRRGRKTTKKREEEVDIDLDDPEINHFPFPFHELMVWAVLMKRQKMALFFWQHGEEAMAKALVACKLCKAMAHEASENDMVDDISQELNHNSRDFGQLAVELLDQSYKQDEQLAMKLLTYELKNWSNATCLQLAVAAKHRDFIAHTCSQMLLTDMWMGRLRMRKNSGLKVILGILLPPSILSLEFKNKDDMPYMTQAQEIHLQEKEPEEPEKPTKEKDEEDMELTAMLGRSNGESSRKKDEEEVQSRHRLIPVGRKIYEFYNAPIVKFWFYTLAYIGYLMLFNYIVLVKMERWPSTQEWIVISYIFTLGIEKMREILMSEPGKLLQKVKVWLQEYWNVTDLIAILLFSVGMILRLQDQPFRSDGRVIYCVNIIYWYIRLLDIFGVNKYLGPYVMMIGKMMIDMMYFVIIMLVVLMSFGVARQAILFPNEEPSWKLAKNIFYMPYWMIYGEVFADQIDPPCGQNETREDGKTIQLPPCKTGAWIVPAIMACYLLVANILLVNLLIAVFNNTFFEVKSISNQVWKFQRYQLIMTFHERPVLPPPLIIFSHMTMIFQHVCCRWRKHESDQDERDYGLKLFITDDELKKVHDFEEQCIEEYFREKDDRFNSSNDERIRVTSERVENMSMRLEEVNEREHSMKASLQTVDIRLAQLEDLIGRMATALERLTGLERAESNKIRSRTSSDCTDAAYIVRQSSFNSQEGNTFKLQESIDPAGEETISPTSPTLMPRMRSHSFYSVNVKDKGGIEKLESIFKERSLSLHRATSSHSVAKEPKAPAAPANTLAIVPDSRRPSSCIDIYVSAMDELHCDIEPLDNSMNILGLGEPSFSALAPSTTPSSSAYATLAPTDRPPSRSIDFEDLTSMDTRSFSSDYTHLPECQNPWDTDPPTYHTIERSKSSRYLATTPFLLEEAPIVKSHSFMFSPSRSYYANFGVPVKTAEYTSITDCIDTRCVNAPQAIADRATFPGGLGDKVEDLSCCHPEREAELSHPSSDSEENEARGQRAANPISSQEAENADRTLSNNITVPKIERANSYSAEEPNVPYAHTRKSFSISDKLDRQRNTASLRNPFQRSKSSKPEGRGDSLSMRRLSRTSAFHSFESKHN

SMILES | pIC50
Cc1oc2ccc(OCC(F)F)cc2c1C(=O)NC(C)(CO)C(N)=O (single isomer, unassigned) [Cpd 041 - En2, 2-{[5-(2,2-difluoroethoxy)-2-methyl-1-benzofuran-3-yl]formamido}-3-hydroxy-2-methylpropanamide] | 4.70 to 6.00
Cc1oc2ccc(OCC(C)C)cc2c1C(=O)NC1CCNCC1(F)F (single isomer, unassigned) [Cpd 042 - En2, N-(3,3-difluoropiperidin-4-yl)-2-methyl-5-(2-methylpropoxy)-1-benzofuran-3-carboxamide] | > 6.00
Cc1oc2ccc(OCC(C)C)cc2c1C(=O)NC1CCNCC1(F)F (single isomer, unassigned) [Cpd 042-En1, N-(3,3-difluoropiperidin-4-yl)-2-methyl-5-(2-methylpropoxy)-1-benzofuran-3-carboxamide] | 4.70 to 6.00
Cc1oc2ccc(OCC(C)(C)C)cc2c1C(=O)NC1CCNCC1(F)F (single isomer, unassigned) [Cpd 043-En1, N-(3,3-difluoropiperidin-4-yl)-5-(2,2-dimethylpropoxy)-2-methyl-1-benzofuran-3-carboxamide] | 4.70 to 6.00
Cc1oc2ccc(OCC(C)(C)C)cc2c1C(=O)NC1CCNCC1(F)F (single isomer, unassigned) [Cpd 043-En2, N-(3,3-difluoropiperidin-4-yl)-5-(2,2-dimethylpropoxy)-2-methyl-1-benzofuran-3-carboxamide] | 4.70 to 6.00
Cc1oc2ccc(OCC(F)F)cc2c1C(=O)NC1(C(N)=O)CCOC1 (single isomer, unassigned) [Cpd 044 - En1, N-(3-carbamoyloxolan-3-yl)-5-(2,2-difluoroethoxy)-2-methyl-1-benzofuran-3-carboxamide] | 4.70 to 6.00
Cc1oc2ccc(OCC(F)F)cc2c1C(=O)NC1(C(N)=O)CCOC1 (single isomer, unassigned) [Cpd 044 - En2, N-(3-carbamoyloxolan-3-yl)-5-(2,2-difluoroethoxy)-2-methyl-1-benzofuran-3-carboxamide] | > 6.00
Cc1oc2cc(F)c(OCC3CC3)cc2c1C(=O)NC(C)(CO)C(N)=O (single isomer, unassigned) [Cpd 045 - En1, 2-{[5-(cyclopropylmethoxy)-6-fluoro-2-methyl-1-benzofuran-3-yl]formamido}-3-hydroxy-2-methylpropanamide] | > 6.00
Cc1oc2cc(F)c(OCC3CC3)cc2c1C(=O)NC(C)(CO)C(N)=O (single isomer, unassigned) [Cpd 045 - En2, 2-{[5-(cyclopropylmethoxy)-6-fluoro-2-methyl-1-benzofuran-3-yl]formamido}-3-hydroxy-2-methylpropanamide] | > 6.00
Cc1oc2ccc(OCC3CC3)cc2c1C(=O)NC(C)(CO)CC(F)F (single isomer, unassigned) [Cpd 046 - En1, 5-(cyclopropylmethoxy)-N-(4,4-difluoro-1-hydroxy-2-methylbutan-2-yl)-2-methyl-1-benzofuran-3-carboxamide] | > 6.00
Cc1oc2ccc(OCC3CC3)cc2c1C(=O)NC(C)(CO)CC(F)F (single isomer, unassigned) [Cpd 046 - En2, 5-(cyclopropylmethoxy)-N-(4,4-difluoro-1-hydroxy-2-methylbutan-2-yl)-2-methyl-1-benzofuran-3-carboxamide] | > 6.00
Cc1oc2ccc(OCC(F)(F)F)cc2c1C(=O)NC(C)(CO)C(N)=O (single isomer, unassigned) [Cpd 047 - En1, 3-hydroxy-2-methyl-2-{[2-methyl-5-(2,2,2-trifluoroethoxy)-1-benzofuran-3-yl]formamido}propanamide] | 4.70 to 6.00
Cc1oc2ccc(OCC(F)(F)F)cc2c1C(=O)NC(C)(CO)C(N)=O (single isomer, unassigned) [Cpd 047 - En2, 3-hydroxy-2-methyl-2-{[2-methyl-5-(2,2,2-trifluoroethoxy)-1-benzofuran-3-yl]formamido}propanamide] | > 6.00
Cc1oc2ccc(OCC3(C(F)(F)F)CC3)cc2c1C(=O)NC(C)(CO)C(N)=O (single isomer, unassigned) [Cpd 048 - En1, 3-hydroxy-2-methyl-2-[(2-methyl-5-{[1-(trifluoromethyl)cyclopropyl]methoxy}-1-benzofuran-3-yl)formamido]propanamide] | > 6.00
Cc1oc2ccc(OCC3(C(F)(F)F)CC3)cc2c1C(=O)NC(C)(CO)C(N)=O (single isomer, unassigned) [Cpd 048 - En2, 3-hydroxy-2-methyl-2-[(2-methyl-5-{[1-(trifluoromethyl)cyclopropyl]methoxy}-1-benzofuran-3-yl)formamido]propanamide] | > 6.00
Cc1oc2ccc(OCC3CC3(C)C)cc2c1C(=O)NC(C)(CO)C(N)=O (single isomer, unassigned) [Cpd 049 - En1, 2-({5-[(2,2-dimethylcyclopropyl)methoxy]-2-methyl-1-benzofuran-3-yl}formamido)-3-hydroxy-2-methylpropanamide] | > 6.00
Cc1oc2ccc(OCC3CC3(C)C)cc2c1C(=O)NC(C)(CO)C(N)=O (single isomer, unassigned) [Cpd 049 - En2, 2-({5-[(2,2-dimethylcyclopropyl)methoxy]-2-methyl-1-benzofuran-3-yl}formamido)-3-hydroxy-2-methylpropanamide] | > 6.00
Cc1oc2ccc(OCC3CC3(C)C)cc2c1C(=O)NC(C)(CO)C(N)=O (single isomer, unassigned) [Cpd 049 - En3, 2-({5-[(2,2-dimethylcyclopropyl)methoxy]-2-methyl-1-benzofuran-3-yl}formamido)-3-hydroxy-2-methylpropanamide] | > 6.00
Cc1oc2ccc(OCC3CC3(C)C)cc2c1C(=O)NC(C)(CO)C(N)=O (single isomer, unassigned) [Cpd 049 - En4, 2-({5-[(2,2-dimethylcyclopropyl)methoxy]-2-methyl-1-benzofuran-3-yl}formamido)-3-hydroxy-2-methylpropanamide] | > 6.00
Cc1oc2ccc(OC[C@@H]3C[C@@H]4C[C@@H]4C3)cc2c1C(=O)NC(C)(CO)C(N)=O (single isomer, unassigned) [Cpd 050 - En1, Cis-2-{[5-({bicyclo[3.1.0]hexan-3-yl}methoxy)-2-methyl-1-benzofuran-3-yl]formamido}-3-hydroxy-2-methylpropanamide] | 4.70 to 6.00
Cc1oc2ccc(OC[C@@H]3C[C@@H]4C[C@@H]4C3)cc2c1C(=O)NC(C)(CO)C(N)=O (single isomer, unassigned) [Cpd 050 - En2, Cis-2-{[5-({bicyclo[3.1.0]hexan-3-yl}methoxy)-2-methyl-1-benzofuran-3-yl]formamido}-3-hydroxy-2-methylpropanamide] | > 6.00
Cc1oc2ccc(OC[C@H]3C[C@@H]4C[C@@H]4C3)cc2c1C(=O)NC(C)(CO)C(N)=O (single isomer, unassigned) [Cpd 051 - En1, Trans-2-{[5-({bicyclo[3.1.0]hexan-3-yl}methoxy)-2-methyl-1-benzofuran-3-yl]formamido}-3-hydroxy-2-methylpropanamide] | > 6.00
Cc1oc2ccc(OC[C@H]3C[C@@H]4C[C@@H]4C3)cc2c1C(=O)NC(C)(CO)C(N)=O (single isomer, unassigned) [Cpd 051 - En2, Trans-2-{[5-({bicyclo[3.1.0]hexan-3-yl}methoxy)-2-methyl-1-benzofuran-3-yl]formamido}-3-hydroxy-2-methylpropanamide] | > 6.00
Cc1oc2ccc(OCC34CC(C)(C3)C4)cc2c1C(=O)NC(C)(CO)C(N)=O (single isomer, unassigned) [Cpd 052 - En1, 3-hydroxy-2-methyl-2-{[2-methyl-5-({3-methylbicyclo[1.1.1]pentan-1-yl}methoxy)-1-benzofuran-3-yl]formamido}propenamide] | > 6.00
Cc1oc2ccc(OCC34CC(C)(C3)C4)cc2c1C(=O)NC(C)(CO)C(N)=O (single isomer, unassigned) [Cpd 052 - En2, 3-hydroxy-2-methyl-2-{[2-methyl-5-({3-methylbicyclo[1.1.1]pentan-1-yl}methoxy)-1-benzofuran-3-yl]formamido}propenamide] | > 6.00
Cc1oc2ccc(OCC3CCC3)cc2c1C(=O)NC(C)(CO)C(N)=O (single isomer, unassigned) [Cpd 053 - En1, 2-{[5-(cyclobutylmethoxy)-2-methyl-1-benzofuran-3-yl]formamido}-3-hydroxy-2-methylpropanamide] | > 6.00
Cc1oc2ccc(OCC3CCC3)cc2c1C(=O)NC(C)(CO)C(N)=O (single isomer, unassigned) [Cpd 053 - En2, 2-{[5-(cyclobutylmethoxy)-2-methyl-1-benzofuran-3-yl]formamido}-3-hydroxy-2-methylpropanamide] | > 6.00
